From ChEMBL document CHEMBL1629541, “Synthesis and structure-activity relationships of aza- and diazabiphenyl analogues of the antitubercular drug (6S)-2-nitro-6-{[4-(trifluoromethoxy)benzyl]oxy}-6,7-dihydro-5H-imidazo[2,1-b][1,3]oxazine (PA-824)” (J Med Chem, 2010)
Values after ≈ are worked out from the molar mass of the structure shown.

Legend:
physchem = conditions: water, pH 7
Description: Solubility of the compound in water at pH 7.0 by HPLC

[1] = tested on: Mycobacterium tuberculosis; assay: microbe, parasite or virus in culture; conditions: H37Rv
[2] = tested on: Mycobacterium tuberculosis; assay: microbe, parasite or virus in culture; conditions: H37Rv; remark: listed apart in the source
Description: Antitubercular activity against Mycobacterium tuberculosis H37Rv by LORA method

## N#Cc1ccc(-c2cc(CO[C@@H]3COc4nc([N+](=O)[O-])cn4C3)ccn2)cc1
physchem
  solubility: 8 µg/mL (≈ 21.2 µM)
[1]
  MIC: 0.38 µM (≈ 0.143 µg/mL)
[2]
  MIC: 13 µM (≈ 4.91 µg/mL)

## O=[N+]([O-])c1cn2c(n1)OC[C@@H](OCc1ccnc(-c3ccc(F)cc3)c1)C2
physchem
  solubility: 31 µg/mL (≈ 83.7 µM)
[1]
  MIC: 0.17 µM (≈ 0.063 µg/mL)
[2]
  MIC: 1.2 µM (≈ 0.444 µg/mL)

## O=[N+]([O-])c1cn2c(n1)OC[C@@H](OCc1ccnc(-c3ccc(OC(F)F)cc3)c1)C2
physchem
  solubility: 16 µg/mL (≈ 38.2 µM)
[1]
  MIC: 0.055 µM (≈ 0.023 µg/mL)
[2]
  MIC: 2.7 µM (≈ 1.13 µg/mL)

## COc1ccc(-c2cc(CO[C@@H]3COc4nc([N+](=O)[O-])cn4C3)ccn2)cc1F
physchem
  solubility: 7.2 µg/mL (≈ 18 µM)
[1]
  MIC: 0.34 µM (≈ 0.136 µg/mL)
[2]
  MIC: 6.2 µM (≈ 2.48 µg/mL)

## O=[N+]([O-])c1cn2c(n1)OC[C@@H](OCc1cc(-c3ccc(OC(F)(F)F)cc3)ccn1)C2
[1]
  MIC: 0.76 µM (≈ 0.332 µg/mL)
[2]
  MIC: 18 µM (≈ 7.85 µg/mL)

## O=[N+]([O-])c1cn2c(n1)OC[C@@H](OCc1ccc(-c3ccc(F)cc3)cn1)C2
[1]
  MIC: 0.13 µM (≈ 0.0481 µg/mL)
[2]
  MIC: 3.2 µM (≈ 1.19 µg/mL)

## O=[N+]([O-])c1cn2c(n1)OC[C@@H](OCc1ccc(-c3ccc(OC(F)F)cc3)cn1)C2
[1]
  MIC: 0.02 µM (≈ 0.00837 µg/mL)
[2]
  MIC: 4 µM (≈ 1.67 µg/mL)

## O=[N+]([O-])c1cn2c(n1)OC[C@@H](OCc1ccc(-c3ccc(OC(F)(F)F)cc3Cl)cn1)C2
[1]
  MIC: 0.14 µM (≈ 0.0659 µg/mL)
[2]
  MIC: 2.6 µM (≈ 1.22 µg/mL)

## O=[N+]([O-])c1cn2c(n1)OC[C@@H](OCc1ccc(-c3ccc(OC(F)(F)F)cc3F)cn1)C2
[1]
  MIC: 0.06 µM (≈ 0.0273 µg/mL)
[2]
  MIC: 1.7 µM (≈ 0.772 µg/mL)

## O=[N+]([O-])c1cn2c(n1)OC[C@@H](OCc1ccc(-c3ccc(OC(F)(F)F)cc3Cl)nc1)C2
[1]
  MIC: 0.03 µM (≈ 0.0141 µg/mL)
[2]
  MIC: 1.6 µM (≈ 0.753 µg/mL)

## O=[N+]([O-])c1cn2c(n1)OC[C@@H](OCc1cnc(-c3ccc(C(F)(F)F)cc3)nc1)C2
[1]
  MIC: 0.025 µM (≈ 0.0105 µg/mL)
[2]
  MIC: 9.4 µM (≈ 3.96 µg/mL)

## O=[N+]([O-])c1cn2c(n1)OC[C@@H](OCc1cnc(-c3ccc(F)cc3)nc1)C2
[1]
  MIC: 0.11 µM (≈ 0.0408 µg/mL)
[2]
  MIC: 5.4 µM (≈ 2.01 µg/mL)

## O=[N+]([O-])c1cn2c(n1)OC[C@@H](OCc1cnc(-c3ccc(C(F)(F)F)nc3)nc1)C2
[1]
  MIC: 0.16 µM (≈ 0.0676 µg/mL)
[2]
  MIC: 12 µM (≈ 5.07 µg/mL)

## O=[N+]([O-])c1cn2c(n1)OC[C@@H](OCc1ccccc1-c1cccnc1)C2
physchem
  solubility: 116 µg/mL (≈ 329 µM)
[1]
  MIC: > 8 µM
[2]
  MIC: > 32 µM

## O=[N+]([O-])c1cn2c(n1)OC[C@@H](OCc1ccccc1-c1ccc(F)nc1)C2
physchem
  solubility: 35 µg/mL (≈ 94.5 µM)
[1]
  MIC: > 8 µM
[2]
  MIC: 16 µM (≈ 5.93 µg/mL)

## COc1ccc(-c2ccccc2CO[C@@H]2COc3nc([N+](=O)[O-])cn3C2)cn1
physchem
  solubility: 48 µg/mL (≈ 126 µM)
[1]
  MIC: 5.2 µM (≈ 1.99 µg/mL)
[2]
  MIC: 8.3 µM (≈ 3.17 µg/mL)

## O=[N+]([O-])c1cn2c(n1)OC[C@@H](OCc1ccccc1-c1ccc(OCc3ccccc3)nc1)C2
physchem
  solubility: 1.2 µg/mL (≈ 2.62 µM)
[1]
  MIC: 2.7 µM (≈ 1.24 µg/mL)
[2]
  MIC: 10 µM (≈ 4.58 µg/mL)

## O=[N+]([O-])c1cn2c(n1)OC[C@@H](OCc1ccccc1-c1ccncc1)C2
[1]
  MIC: > 8 µM
[2]
  MIC: > 32 µM

## O=[N+]([O-])c1cn2c(n1)OC[C@@H](OCc1cccc(-c3ccccn3)c1)C2
[1]
  MIC: 1.4 µM (≈ 0.493 µg/mL)
[2]
  MIC: 11 µM (≈ 3.88 µg/mL)

## O=[N+]([O-])c1cn2c(n1)OC[C@@H](OCc1cccc(-c3ccc(C(F)(F)F)cn3)c1)C2
physchem
  solubility: 4 µg/mL (≈ 9.52 µM)
[1]
  MIC: 0.32 µM (≈ 0.135 µg/mL)
[2]
  MIC: 4.3 µM (≈ 1.81 µg/mL)

## O=[N+]([O-])c1cn2c(n1)OC[C@@H](OCc1cccc(-c3ccc(OC(F)F)cn3)c1)C2
physchem
  solubility: 6.7 µg/mL (≈ 16 µM)
[1]
  MIC: 0.21 µM (≈ 0.0879 µg/mL)
[2]
  MIC: 6.4 µM (≈ 2.68 µg/mL)

## O=[N+]([O-])c1cn2c(n1)OC[C@@H](OCc1cccc(-c3cccnc3)c1)C2
physchem
  solubility: 110 µg/mL (≈ 312 µM)
[1]
  MIC: 1.4 µM (≈ 0.493 µg/mL)
[2]
  MIC: 9.7 µM (≈ 3.42 µg/mL)

## O=[N+]([O-])c1cn2c(n1)OC[C@@H](OCc1cccc(-c3ccc(C(F)(F)F)nc3)c1)C2
physchem
  solubility: 1.1 µg/mL (≈ 2.62 µM)
[1]
  MIC: 0.47 µM (≈ 0.198 µg/mL)
[2]
  MIC: 8.4 µM (≈ 3.53 µg/mL)

## O=[N+]([O-])c1cn2c(n1)OC[C@@H](OCc1cccc(-c3ccc(F)nc3)c1)C2
physchem
  solubility: 26 µg/mL (≈ 70.2 µM)
[1]
  MIC: 0.37 µM (≈ 0.137 µg/mL)
[2]
  MIC: 5.1 µM (≈ 1.89 µg/mL)

## COc1ccc(-c2cccc(CO[C@@H]3COc4nc([N+](=O)[O-])cn4C3)c2)cn1
physchem
  solubility: 18 µg/mL (≈ 47.1 µM)
[1]
  MIC: 0.4 µM (≈ 0.153 µg/mL)
[2]
  MIC: 1.7 µM (≈ 0.65 µg/mL)

## O=[N+]([O-])c1cn2c(n1)OC[C@@H](OCc1cccc(-c3ccc(OCc4ccccc4)nc3)c1)C2
physchem
  solubility: 0.15 µg/mL (≈ 0.327 µM)
[1]
  MIC: 0.07 µM (≈ 0.0321 µg/mL)
[2]
  MIC: 3 µM (≈ 1.38 µg/mL)

## O=[N+]([O-])c1cn2c(n1)OC[C@@H](OCc1cccc(-c3ccncc3)c1)C2
[1]
  MIC: 1.4 µM (≈ 0.493 µg/mL)
[2]
  MIC: > 32 µM

## O=[N+]([O-])c1cn2c(n1)OC[C@@H](OCc1ccc(-c3ccccn3)cc1)C2
physchem
  solubility: 7.3 µg/mL (≈ 20.7 µM)
[1]
  MIC: 0.21 µM (≈ 0.074 µg/mL)
[2]
  MIC: 1.7 µM (≈ 0.599 µg/mL)

## O=[N+]([O-])c1cn2c(n1)OC[C@@H](OCc1ccc(-c3cccnc3)cc1)C2
physchem
  solubility: 29 µg/mL (≈ 82.3 µM)
[1]
  MIC: 0.51 µM (≈ 0.18 µg/mL)
[2]
  MIC: 5.7 µM (≈ 2.01 µg/mL)

## N#Cc1ccc(-c2ccc(CO[C@@H]3COc4nc([N+](=O)[O-])cn4C3)cc2)nc1
physchem
  solubility: 1.7 µg/mL (≈ 4.5 µM)
[1]
  MIC: 0.08 µM (≈ 0.0302 µg/mL)
[2]
  MIC: 2.5 µM (≈ 0.943 µg/mL)

## O=[N+]([O-])c1cn2c(n1)OC[C@@H](OCc1ccc(-c3cccc(F)n3)cc1)C2
physchem
  solubility: 4.3 µg/mL (≈ 11.6 µM)
[1]
  MIC: 0.14 µM (≈ 0.0518 µg/mL)
[2]
  MIC: 1.1 µM (≈ 0.407 µg/mL)

## COc1ccc(-c2ccc(CO[C@@H]3COc4nc([N+](=O)[O-])cn4C3)cc2)nc1
physchem
  solubility: 2.5 µg/mL (≈ 6.54 µM)
[1]
  MIC: 0.13 µM (≈ 0.0497 µg/mL)
[2]
  MIC: 1.2 µM (≈ 0.459 µg/mL)

## N#Cc1ccc(-c2ccc(CO[C@@H]3COc4nc([N+](=O)[O-])cn4C3)cc2)cn1
physchem
  solubility: 3 µg/mL (≈ 7.95 µM)
[1]
  MIC: 0.2 µM (≈ 0.0755 µg/mL)
[2]
  MIC: 2.4 µM (≈ 0.906 µg/mL)

## O=[N+]([O-])c1cn2c(n1)OC[C@@H](OCc1ccc(-c3cncc(F)c3)cc1)C2
physchem
  solubility: 55 µg/mL (≈ 149 µM)
[1]
  MIC: 0.55 µM (≈ 0.204 µg/mL)
[2]
  MIC: 2.8 µM (≈ 1.04 µg/mL)

## Nc1ccc(-c2ccc(CO[C@@H]3COc4nc([N+](=O)[O-])cn4C3)cc2)cn1
physchem
  solubility: 13 µg/mL (≈ 35.4 µM)
[1]
  MIC: 2.6 µM (≈ 0.955 µg/mL)
[2]
  MIC: 19 µM (≈ 6.98 µg/mL)

## O=[N+]([O-])c1cn2c(n1)OC[C@@H](OCc1ccc(-c3ccc(OCc4ccccc4)nc3)cc1)C2
physchem
  solubility: 0.03 µg/mL (≈ 0.0654 µM)
[1]
  MIC: 0.04 µM (≈ 0.0183 µg/mL)
[2]
  MIC: > 32 µM

## O=[N+]([O-])c1cn2c(n1)OC[C@@H](OCc1ccc(-c3ccncc3)cc1)C2
physchem
  solubility: 22 µg/mL (≈ 62.4 µM)
[1]
  MIC: 0.5 µM (≈ 0.176 µg/mL)
[2]
  MIC: 9.2 µM (≈ 3.24 µg/mL)

## O=[N+]([O-])c1cn2c(n1)OC[C@@H](OCc1ccc(-c3ccncc3F)cc1)C2
physchem
  solubility: 16 µg/mL (≈ 43.2 µM)
[1]
  MIC: 0.56 µM (≈ 0.207 µg/mL)
[2]
  MIC: 3.9 µM (≈ 1.44 µg/mL)

## O=[N+]([O-])c1cn2c(n1)OC[C@@H](OCc1cccc(-c3ccc(C(F)(F)F)cc3)n1)C2
physchem
  solubility: 5 µg/mL (≈ 11.9 µM)
[1]
  MIC: 0.29 µM (≈ 0.122 µg/mL)
[2]
  MIC: 2.9 µM (≈ 1.22 µg/mL)

## N#Cc1ccc(-c2cccc(CO[C@@H]3COc4nc([N+](=O)[O-])cn4C3)n2)cc1
physchem
  solubility: 24 µg/mL (≈ 63.6 µM)
[1]
  MIC: 0.48 µM (≈ 0.181 µg/mL)
[2]
  MIC: 10 µM (≈ 3.77 µg/mL)

## O=[N+]([O-])c1cn2c(n1)OC[C@@H](OCc1cccc(-c3ccc(F)cc3)n1)C2
[1]
  MIC: 0.3 µM (≈ 0.111 µg/mL)
[2]
  MIC: 2.7 µM (≈ 1 µg/mL)

## O=[N+]([O-])c1cn2c(n1)OC[C@@H](OCc1cccc(-c3ccc(OC(F)(F)F)cc3)n1)C2
[1]
  MIC: 0.16 µM (≈ 0.0698 µg/mL)
[2]
  MIC: 1.4 µM (≈ 0.611 µg/mL)

## O=[N+]([O-])c1cn2c(n1)OC[C@@H](OCc1cccc(-c3ccc(OC(F)F)cc3)n1)C2
physchem
  solubility: 9.6 µg/mL (≈ 22.9 µM)
[1]
  MIC: 0.17 µM (≈ 0.0711 µg/mL)
[2]
  MIC: 2.7 µM (≈ 1.13 µg/mL)

## COc1ccc(-c2cccc(CO[C@@H]3COc4nc([N+](=O)[O-])cn4C3)n2)cc1F
physchem
  solubility: 10 µg/mL (≈ 25 µM)
[1]
  MIC: 0.3 µM (≈ 0.12 µg/mL)
[2]
  MIC: 4.3 µM (≈ 1.72 µg/mL)

## COc1ccc(-c2cccc(CO[C@@H]3COc4nc([N+](=O)[O-])cn4C3)n2)cn1
physchem
  solubility: 14 µg/mL (≈ 36.5 µM)
[1]
  MIC: 0.71 µM (≈ 0.272 µg/mL)
[2]
  MIC: 5.2 µM (≈ 1.99 µg/mL)

## O=[N+]([O-])c1cn2c(n1)OC[C@@H](OCc1ccnc(-c3ccc(C(F)(F)F)cc3)c1)C2
physchem
  solubility: 2.8 µg/mL (≈ 6.66 µM)
[1]
  MIC: 0.075 µM (≈ 0.0315 µg/mL)
[2]
  MIC: 4.4 µM (≈ 1.85 µg/mL)

## O=[N+]([O-])c1cn2c(n1)OC[C@@H](OCc1ccc(-c3ccc(C(F)(F)F)cc3)cc1)C2
physchem
  solubility: 0.43 µg/mL (≈ 1.03 µM)
